Measurements reported in PubChem BioAssay (NCI).
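Values below derive from 48-hour exposures of cells grown in 96-well plates, with endpoints linearly interpolated between the two concentrations bracketing the appropriate inhibition level. The concentration for 50% growth inhibition is given as GI50. TGI: total growth inhibition.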

Tests used:
Assay in all cases: NCI anticancer screen, dose series, 48 h
HS 578T breast = system: HS 578T breast
SNB-19 CNS = system: SNB-19 CNS
KM12 colon = system: KM12 colon
MOLT-4 leukemia = system: MOLT-4 leukemia
HCC-2998 colon = system: HCC-2998 colon
SNB-75 CNS = system: SNB-75 CNS
RPMI-8226 leukemia = system: RPMI-8226 leukemia
MCF7 breast = system: MCF7 breast
MDA-MB-435 = system: MDA-MB-435
NCI-H460 lung = system: NCI-H460 lung
HT29 colon = system: HT29 colon
HOP-92 NSCLC = system: HOP-92 NSCLC
DU-145 prostate = system: DU-145 prostate
SR leukemia = system: SR leukemia
CCRF-CEM leukemia = system: CCRF-CEM leukemia
SF-539 CNS = system: SF-539 CNS
BT-549 breast = system: BT-549 breast
786-0 renal = system: 786-0 renal
K-562 leukemia = system: K-562 leukemia
HL-60(TB) leukemia = system: HL-60(TB) leukemia
NCI/ADR-RES ovarian = system: NCI/ADR-RES ovarian
CAKI-1 renal = system: CAKI-1 renal
M14 melanoma = system: M14 melanoma
A549 NSCLC = system: A549 NSCLC
NCI-H522 lung = system: NCI-H522 lung
SK-OV-3 ovarian = system: SK-OV-3 ovarian
HCT-15 colon = system: HCT-15 colon
PC-3 prostate = system: PC-3 prostate
HOP-62 NSCLC = system: HOP-62 NSCLC
HCT-116 colon = system: HCT-116 colon
OVCAR-5 ovarian = system: OVCAR-5 ovarian
ACHN renal = system: ACHN renal
OVCAR-8 ovarian = system: OVCAR-8 ovarian
OVCAR-4 ovarian = system: OVCAR-4 ovarian
SW-620 colon = system: SW-620 colon
OVCAR-3 ovarian = system: OVCAR-3 ovarian
T-47D breast = system: T-47D breast
IGROV1 ovarian = system: IGROV1 ovarian
MALME-3M melanoma = system: MALME-3M melanoma
SK-MEL-5 melanoma = system: SK-MEL-5 melanoma
UACC-257 melanoma = system: UACC-257 melanoma
SN12C renal = system: SN12C renal
NCI-H23 lung = system: NCI-H23 lung
SF-268 CNS = system: SF-268 CNS
TK-10 renal = system: TK-10 renal
NCI-H226 lung = system: NCI-H226 lung
EKVX NSCLC = system: EKVX NSCLC
MDA-MB-231 breast = system: MDA-MB-231 breast
UO-31 renal = system: UO-31 renal
SF-295 CNS = system: SF-295 CNS
SK-MEL-28 melanoma = system: SK-MEL-28 melanoma
UACC-62 melanoma = system: UACC-62 melanoma
U251 CNS = system: U251 CNS
COLO 205 colon = system: COLO 205 colon
RXF 393 renal = system: RXF 393 renal
A498 renal = system: A498 renal
LOX IMVI melanoma = system: LOX IMVI melanoma

CCCCOc1ccc(S(=O)(=O)N2CCN(c3nccc(N4CCOCC4)n3)CC2)cc1
GI50 (HS 578T breast): 3020 nM | TGI (HS 578T breast): > 100000 nM | GI50 (SNB-19 CNS): 6650 nM | TGI (SNB-19 CNS): > 100000 nM | GI50 (KM12 colon): 1570 nM | TGI (KM12 colon): > 100000 nM | GI50 (MOLT-4 leukemia): 1400 nM | TGI (MOLT-4 leukemia): > 100000 nM | GI50 (HCC-2998 colon): 1840 nM | TGI (HCC-2998 colon): > 100000 nM | GI50 (SNB-75 CNS): 1770 nM | TGI (SNB-75 CNS): 4390 nM | GI50 (RPMI-8226 leukemia): 422 nM | TGI (RPMI-8226 leukemia): 5590 nM | GI50 (MCF7 breast): > 100000 nM | TGI (MCF7 breast): > 100000 nM | GI50 (MDA-MB-435): 1500 nM | TGI (MDA-MB-435): > 100000 nM | GI50 (NCI-H460 lung): 481 nM | TGI (NCI-H460 lung): > 100000 nM | GI50 (HT29 colon): 538 nM | TGI (HT29 colon): > 100000 nM | GI50 (HOP-92 NSCLC): 1800 nM | TGI (HOP-92 NSCLC): 6910 nM | GI50 (DU-145 prostate): 524 nM | TGI (DU-145 prostate): > 100000 nM | GI50 (SR leukemia): 2770 nM | TGI (SR leukemia): > 100000 nM | GI50 (CCRF-CEM leukemia): 3440 nM | TGI (CCRF-CEM leukemia): > 100000 nM | GI50 (SF-539 CNS): 4090 nM | TGI (SF-539 CNS): > 100000 nM | GI50 (BT-549 breast): 2450 nM | TGI (BT-549 breast): > 100000 nM | GI50 (786-0 renal): 2700 nM | TGI (786-0 renal): > 100000 nM | GI50 (K-562 leukemia): 3300 nM | TGI (K-562 leukemia): > 100000 nM | GI50 (HL-60(TB) leukemia): 476 nM | TGI (HL-60(TB) leukemia): > 100000 nM | GI50 (NCI/ADR-RES ovarian): 2020 nM | TGI (NCI/ADR-RES ovarian): > 100000 nM | GI50 (CAKI-1 renal): 1760 nM | TGI (CAKI-1 renal): > 100000 nM | GI50 (M14 melanoma): 2710 nM | TGI (M14 melanoma): > 100000 nM | GI50 (A549 NSCLC): 654 nM | TGI (A549 NSCLC): > 100000 nM | GI50 (NCI-H522 lung): > 100000 nM | TGI (NCI-H522 lung): > 100000 nM | GI50 (SK-OV-3 ovarian): 2780 nM | TGI (SK-OV-3 ovarian): > 100000 nM | GI50 (HCT-15 colon): 1710 nM | TGI (HCT-15 colon): > 100000 nM | GI50 (PC-3 prostate): 3150 nM | TGI (PC-3 prostate): > 100000 nM | GI50 (HOP-62 NSCLC): 16300 nM | TGI (HOP-62 NSCLC): > 100000 nM | GI50 (HCT-116 colon): 484 nM | TGI (HCT-116 colon): > 100000 nM | GI50 (OVCAR-5 ovarian): > 100000 nM | TGI (OVCAR-5 ovarian): > 100000 nM | GI50 (ACHN renal): 1920 nM | TGI (ACHN renal): > 100000 nM | GI50 (OVCAR-8 ovarian): 4040 nM | TGI (OVCAR-8 ovarian): > 100000 nM | GI50 (OVCAR-4 ovarian): 4730 nM | TGI (OVCAR-4 ovarian): > 100000 nM

COc1ccc([C@@H]2[C@@H](O)C(=O)N2c2cc(OC)c(OC)c(OC)c2)cc1Cl
GI50 (SW-620 colon): < 19.2 nM | TGI (SW-620 colon): > 100000 nM | GI50 (HS 578T breast): < 22.6 nM | TGI (HS 578T breast): > 100000 nM | GI50 (SNB-19 CNS): < 24.1 nM | TGI (SNB-19 CNS): > 100000 nM | GI50 (OVCAR-3 ovarian): < 10 nM | TGI (OVCAR-3 ovarian): 171 nM | GI50 (T-47D breast): 33100 nM | TGI (T-47D breast): > 100000 nM | GI50 (KM12 colon): < 16.3 nM | TGI (KM12 colon): > 100000 nM | GI50 (MOLT-4 leukemia): < 20 nM | TGI (MOLT-4 leukemia): > 100000 nM | GI50 (HCC-2998 colon): < 19.4 nM | GI50 (IGROV1 ovarian): < 20.3 nM | TGI (IGROV1 ovarian): > 100000 nM | GI50 (MALME-3M melanoma): 219 nM | TGI (MALME-3M melanoma): > 100000 nM | GI50 (SNB-75 CNS): 26.2 nM | TGI (SNB-75 CNS): > 100000 nM | GI50 (RPMI-8226 leukemia): < 21.7 nM | GI50 (MCF7 breast): < 10 nM | TGI (MCF7 breast): > 92000 nM | GI50 (SK-MEL-5 melanoma): < 14.9 nM | TGI (SK-MEL-5 melanoma): 38 nM | GI50 (UACC-257 melanoma): > 100000 nM | TGI (UACC-257 melanoma): > 100000 nM | GI50 (MDA-MB-435): < 10 nM | TGI (MDA-MB-435): 24.8 nM | GI50 (SN12C renal): < 19.3 nM | TGI (SN12C renal): > 100000 nM | GI50 (NCI-H460 lung): < 18.9 nM | GI50 (NCI-H23 lung): 35.3 nM | TGI (NCI-H23 lung): > 100000 nM | GI50 (SF-268 CNS): < 21.6 nM | TGI (SF-268 CNS): > 100000 nM | GI50 (TK-10 renal): > 54900 nM | TGI (TK-10 renal): > 100000 nM | GI50 (NCI-H226 lung): < 10 nM | TGI (NCI-H226 lung): 75.3 nM | GI50 (HT29 colon): < 10 nM | GI50 (HOP-92 NSCLC): 16200 nM | TGI (HOP-92 NSCLC): > 100000 nM | TGI (EKVX NSCLC): > 100000 nM | GI50 (DU-145 prostate): < 19 nM | TGI (DU-145 prostate): > 100000 nM | GI50 (SR leukemia): < 10.7 nM | TGI (SR leukemia): > 100000 nM | GI50 (MDA-MB-231 breast): < 18.7 nM | TGI (MDA-MB-231 breast): > 100000 nM | GI50 (CCRF-CEM leukemia): < 18.5 nM | TGI (CCRF-CEM leukemia): > 100000 nM | GI50 (UO-31 renal): < 23.6 nM | TGI (UO-31 renal): > 100000 nM | GI50 (SF-539 CNS): < 10 nM | TGI (SF-539 CNS): 49.1 nM | GI50 (BT-549 breast): < 14.4 nM | TGI (BT-549 breast): 66.8 nM | GI50 (786-0 renal): < 19.8 nM | TGI (786-0 renal): > 100000 nM | GI50 (K-562 leukemia): < 14.3 nM | TGI (K-562 leukemia): > 100000 nM | GI50 (HL-60(TB) leukemia): < 15.9 nM | TGI (HL-60(TB) leukemia): 1830 nM | GI50 (NCI/ADR-RES ovarian): < 15.2 nM | TGI (NCI/ADR-RES ovarian): 95.9 nM | GI50 (SF-295 CNS): < 11.1 nM | TGI (SF-295 CNS): > 100000 nM | GI50 (CAKI-1 renal): < 12.2 nM | GI50 (M14 melanoma): < 17.1 nM | TGI (M14 melanoma): > 100000 nM | GI50 (SK-MEL-28 melanoma): 146 nM | TGI (SK-MEL-28 melanoma): > 100000 nM | GI50 (A549 NSCLC): < 19.3 nM | TGI (A549 NSCLC): > 100000 nM | GI50 (UACC-62 melanoma): < 10 nM | TGI (UACC-62 melanoma): > 100000 nM | GI50 (U251 CNS): < 17.8 nM | TGI (U251 CNS): > 100000 nM | GI50 (NCI-H522 lung): < 10 nM | TGI (NCI-H522 lung): < 17.2 nM | GI50 (SK-OV-3 ovarian): < 22.9 nM | TGI (SK-OV-3 ovarian): > 51300 nM | GI50 (COLO 205 colon): < 15.6 nM | TGI (COLO 205 colon): < 23.9 nM | GI50 (HCT-15 colon): < 16.9 nM | TGI (HCT-15 colon): > 100000 nM | GI50 (PC-3 prostate): < 19.7 nM | TGI (PC-3 prostate): > 100000 nM | GI50 (RXF 393 renal): 43.1 nM | TGI (RXF 393 renal): > 100000 nM | GI50 (A498 renal): 21700 nM | TGI (A498 renal): > 100000 nM | GI50 (HOP-62 NSCLC): < 20.1 nM | TGI (HOP-62 NSCLC): > 100000 nM | GI50 (LOX IMVI melanoma): < 11.4 nM | TGI (LOX IMVI melanoma): > 100000 nM | GI50 (HCT-116 colon): < 14.9 nM | TGI (HCT-116 colon): > 100000 nM | GI50 (OVCAR-5 ovarian): < 18.6 nM | TGI (OVCAR-5 ovarian): > 100000 nM | GI50 (ACHN renal): < 14.4 nM | TGI (ACHN renal): > 100000 nM | GI50 (OVCAR-8 ovarian): < 17.9 nM | GI50 (OVCAR-4 ovarian): 2160 nM | TGI (OVCAR-4 ovarian): > 100000 nM
